Laboratory results from US11395492B2, “Antimicrobial and agrochemical compositions” (Myco Sciences Limited, priority 2015, dated 2022).
Values joined by “and” are separate entries in the source; they are usually repeats but may differ in a detail not shown here. Equal values may be shown once.

How the values were obtained:
[1] = system: spores of B. cinerea; assay: Sporicidal assay (1) with sodium nitrite, B. cinerea; format: cell-based, Botrytis cinerea
[2] = system: spores of F. oxysporum; assay: Sporicidal assay (1) with sodium nitrite, F. oxysporum; format: cell-based, Fusarium oxysporum f. sp. cubense
[3] = system: sclerotia of R. solani; assay: Scleroticidal assay with compositions and sodium nitrite; format: cell-based, Rhizoctonia solani
Excerpt: Scleroticidal assay. Plugs of agar containing white immature sclerotia (3×3 millimeters) were cut from a 6 to 8 day culture of R. solani, whilst mature melanized (black) sclerotia (around 10×3 millimeters) were excised from 13-day old R. solani cultures and cut into 2×3 millimeter pieces with a scalpel. The sclerotia samples were then placed in the wells of a 96-well plate containing 75 microliters of various concentrations of sodium nitrite or sterile distilled water (DW) as control. TO start the reaction, 75 microliters of CuZn #31 (diluted in DW) was added to the wells. The plate was carefully shaken and incubated at room temperature for 10 minutes when the liquid was carefully removed and 150 microliters of CM-1 medium was added for 5 minutes to stop the reaction.

[4] = NaNO2 1 mM + DW (sodium nitrite alone)
[5] = NaNO2 3 mM + DW (sodium nitrite alone)
[6] = NaNO2 10 mM + DW (sodium nitrite alone)
[7] = NaNO2 30 mM + DW (sodium nitrite alone)

O=NO [NaNO2, sodium nitrite]
Fungal growth score, spores of B. cinerea [1, 4]: 2 | Fungal growth score, spores of B. cinerea [1, 5]: 2 | Fungal growth score, spores of B. cinerea [1, 6]: 2 | Fungal growth score, spores of B. cinerea [1, 7]: 2 | Fungal growth score, spores of B. cinerea ([1]; NaNO2 100 mM + DW (sodium nitrite alone)): 2 | sporicidal activity to F. oxysporum spores ([2]; 100 millimolar sodium nitrite alone, data not shown): sporicidal | Fungal growth score, spores of F. oxysporum [2, 4]: 2 | Fungal growth score, spores of F. oxysporum [2, 5]: 2 | Fungal growth score, spores of F. oxysporum [2, 6]: 2 | Fungal growth score, spores of F. oxysporum [2, 7]: 2 | Mean fungal growth (in mm ± SD, n = 2) of black sclerotia after treatment ([3]; NaNO2 30 mM + 0 composition (sodium nitrite alone)): 41 ± 2 mm and 43 ± 2 mm | scleroticidal effect (words, FIG. 2) ([3]; sodium nitrite alone (0+100), white or black sclerotia): little or no significant scleroticidal effect
